The source of these data is paper PMC10653868, “The LytS-type histidine kinase BtsS is a 7-transmembrane receptor that binds pyruvate” (mBio, 2023).

Holding throughout (test): DRaCALA with […]-pyruvate and competition with cold pyruvate, membrane vesicles
Common to all, as to assay type: binding

The target of assay [1] is T1, BtsS (Escherichia coli, UniProt P0AD14, C110A).
T1 construct: BtsS-C110A-6His in membrane vesicles of E. coli MG1655 ΔbtsSRΔypdABC

For assay [2], the target named is T2, BtsS (Escherichia coli, UniProt P0AD14, R99A).
T2 construct: BtsS-R99A-6His in membrane vesicles of E. coli MG1655 ΔbtsSRΔypdABC

In assay [3] the target is T3, BtsS (Escherichia coli, UniProt P0AD14, R72A).
T3 construct: BtsS-R72A-6His in membrane vesicles of E. coli MG1655 ΔbtsSRΔypdABC

Assay [4] concerns the target T4, BtsS (Escherichia coli, UniProt P0AD14).
T4 construct: BtsS-6His in membrane vesicles of E. coli MG1655 ΔbtsSRΔypdABC

Assay [5] concerns the target T5, BtsS (Escherichia coli, UniProt P0AD14, S113A).
T5 construct: BtsS-S113A-6His in membrane vesicles of E. coli MG1655 ΔbtsSRΔypdABC

T2 sequence (P0AD14 whole entry R99A): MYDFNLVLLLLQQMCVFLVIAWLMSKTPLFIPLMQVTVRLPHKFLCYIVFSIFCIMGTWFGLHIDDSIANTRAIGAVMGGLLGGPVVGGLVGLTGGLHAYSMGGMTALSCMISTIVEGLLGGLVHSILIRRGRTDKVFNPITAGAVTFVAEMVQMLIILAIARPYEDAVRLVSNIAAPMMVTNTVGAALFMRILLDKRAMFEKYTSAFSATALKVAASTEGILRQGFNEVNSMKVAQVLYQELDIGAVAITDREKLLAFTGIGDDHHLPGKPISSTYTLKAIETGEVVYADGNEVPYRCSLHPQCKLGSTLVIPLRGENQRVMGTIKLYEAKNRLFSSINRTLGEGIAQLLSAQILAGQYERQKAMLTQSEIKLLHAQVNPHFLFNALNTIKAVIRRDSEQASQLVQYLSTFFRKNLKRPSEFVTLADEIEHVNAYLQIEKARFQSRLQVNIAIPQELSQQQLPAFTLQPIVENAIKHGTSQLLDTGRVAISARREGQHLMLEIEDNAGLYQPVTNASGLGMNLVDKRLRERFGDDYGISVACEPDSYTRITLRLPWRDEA
T5 sequence (P0AD14 whole entry S113A): as the sequence (P0AD14 whole entry R99A) above, with A99R, S113A counted along it
T1 sequence (P0AD14 whole entry C110A): as the sequence (P0AD14 whole entry R99A) above, with A99R, C110A counted along it
T3 sequence (P0AD14 whole entry R72A): as the sequence (P0AD14 whole entry R99A) above, with R72A, A99R counted along it
T4 sequence (P0AD14 whole entry): as the sequence (P0AD14 whole entry R99A) above, with A99R counted along it

In general, Kd refers to the constant that tells how readily two partners part at equilibrium. Read a high Kd as lower affinity. Consider `CC(=O)C(=O)O` [pyruvate], for which the Kd on BtsS [1] was found to be 375 ± 21.2 µM; on BtsS [2], 245 ± 10.1 µM; at BtsS [3], 107 ± 12.3 µM; at BtsS [4], 67.3 ± 10.6 µM; on BtsS [5], 284 ± 8 µM.
